Results reported in BindingDB's records for patent US20250074911 (Crossfire Oncology Holding, 2025).

Biological target: Tyrosine-protein kinase BTK (Homo sapiens, UniProt Q06187)
Assay: Biochemical kinase assay wt-BTK
Experimental: To determine the inhibitory activity of compounds on wt-BTK enzyme activity, the IMAP assay (Molecular Devices) was used. Compounds were serially diluted in dimethylsulfoxide (DMSO) and subsequently in 4% DMSO in IMAP reaction buffer, which consists of 10 mM Tris-HCl, pH 15 7.5, 10 mM MgCl2, 0.01% Tween-20, 0.1% NaN3 and 1 mM freshly prepared dithiotreitol (DTT). Compound solution was mixed with an equal volume of full-length wt-BTK enzyme (Carna Biosciences, cat. no. 08-180) in IMAP reaction buffer. After pre-incubation of 1 hour in the dark at room temperature, fluorescein-labeled MBP-derived substrate peptide (Molecular Devices, cat. no. RP 7123) was added, followed by ATP to start the reaction. Final enzyme concentration was 1.2 nM, final substrate concentration 50 nM, and final ATP concentration was 4 μM. The reaction was allowed to proceed for 2 hours at room temperature in the dark. The reaction was stopped by quenching with IMAP progressive binding solution according to the protocol of the manufacturer (Molecular Devices). Fluorescein polarization was measured on an Envision multimode reader (Perkin Elmer, Waltham, MA, U.S.A.).

Chain of Tyrosine-protein kinase BTK (Q06187 whole entry): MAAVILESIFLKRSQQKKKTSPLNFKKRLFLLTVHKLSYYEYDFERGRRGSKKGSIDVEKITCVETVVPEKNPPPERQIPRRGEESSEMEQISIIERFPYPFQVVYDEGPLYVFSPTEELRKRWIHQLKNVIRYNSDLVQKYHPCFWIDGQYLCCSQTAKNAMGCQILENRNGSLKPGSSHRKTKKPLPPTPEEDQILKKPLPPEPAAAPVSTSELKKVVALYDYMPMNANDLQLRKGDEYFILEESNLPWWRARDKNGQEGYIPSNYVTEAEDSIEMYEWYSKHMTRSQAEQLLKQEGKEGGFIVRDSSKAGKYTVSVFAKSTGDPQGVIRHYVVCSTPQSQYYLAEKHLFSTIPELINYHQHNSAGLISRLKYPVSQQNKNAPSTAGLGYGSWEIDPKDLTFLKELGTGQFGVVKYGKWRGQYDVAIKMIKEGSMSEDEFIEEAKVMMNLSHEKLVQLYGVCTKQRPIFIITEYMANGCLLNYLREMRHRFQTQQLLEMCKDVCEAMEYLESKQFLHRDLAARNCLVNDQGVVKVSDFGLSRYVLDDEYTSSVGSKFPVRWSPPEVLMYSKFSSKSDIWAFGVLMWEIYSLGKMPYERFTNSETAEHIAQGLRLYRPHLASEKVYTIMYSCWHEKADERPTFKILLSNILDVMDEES

C[C@@H]1CCn2nc(-c3ccc(C(=O)Nc4cc(C(F)(F)F)ccn4)cc3)c3c(N)ncc(c32)/C=C/CCCCC(=O)N1 [US20250074911, Example 54]
IC50: < 5 nM
